Measurements published in PubChem BioAssay (NCI).
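All cell lines were grown in 96-well plates and treated with compound for 48 hours. Here, GI50 denotes the concentration required for 50% inhibition of growth. The concentration for full growth arrest is given as TGI.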

How the values were obtained:
Assay in all cases: NCI tumour cell line growth inhibition, 48 h; in the data active = GI50 below about 0.43 µM; inactive = the rest
[1] = system: NCI-H460 lung
[2] = system: MCF7 breast
[3] = system: HCT-116 colon
[4] = system: NCI-H522 lung
[5] = system: HL-60(TB) leukemia
[6] = system: RXF 393 renal
[7] = system: OVCAR-5 ovarian
[8] = system: HOP-92 NSCLC
[9] = system: RPMI-8226 leukemia
[10] = system: SK-MEL-5 melanoma
[11] = system: OVCAR-3 ovarian
[12] = system: NCI/ADR-RES ovarian
[13] = system: CCRF-CEM leukemia
[14] = system: SK-MEL-28 melanoma
[15] = system: A549 NSCLC
[16] = system: TK-10 renal
[17] = system: SK-OV-3 ovarian
[18] = system: SK-MEL-2 melanoma
[19] = system: NCI-H23 lung
[20] = system: MDA-MB-231 breast
[21] = system: SNB-19 CNS
[22] = system: SN12C renal
[23] = system: MOLT-4 leukemia
[24] = system: A498 renal
[25] = system: T-47D breast
[26] = system: IGROV1 ovarian
[27] = system: HCC-2998 colon
[28] = system: BT-549 breast
[29] = system: U251 CNS

CSc1ccc2c(c1)C(=O)c1c-2n(CCCBr)c(=O)c2cc([N+](=O)[O-])ccc12
25.8 µM: TGI [10]
96.4 µM: TGI [24]
> 100 µM: TGI [1] | TGI [2] | TGI [3] | TGI [6] | TGI [7] | TGI [9] | TGI [11] | TGI [12] | TGI [13] | TGI [14] | TGI [15] | TGI [16] | TGI [17] | TGI [18] | TGI [19] | TGI [20] | TGI [21] | TGI [25] | TGI [26] | TGI [27] | TGI [28] | TGI [29]
10.3 µM: TGI [8]
active: GI50 [8] 0.356 µM
8.46 µM: TGI [5]
inactive: GI50 [2] 1.58 µM | GI50 [3] 2.22 µM | GI50 [4] 5.32 µM | GI50 [5] 0.532 µM | GI50 [6] > 100 µM | GI50 [7] > 100 µM | GI50 [9] 4.11 µM | GI50 [10] 3 µM | GI50 [11] > 100 µM | GI50 [12] 5.5 µM | GI50 [13] 0.451 µM | GI50 [14] 51.8 µM | GI50 [15] 7.61 µM | GI50 [16] > 100 µM | GI50 [17] 12.1 µM | GI50 [18] > 100 µM | GI50 [19] 8.03 µM | GI50 [20] > 100 µM | GI50 [21] 3.78 µM | GI50 [22] 0.893 µM | GI50 [23] 0.558 µM | GI50 [24] 8.32 µM | GI50 [25] 17.8 µM | GI50 [26] 12.1 µM | GI50 [27] 74.4 µM | GI50 [28] 80.7 µM | GI50 [29] 1.98 µM
6.95 µM: TGI [22]
17 µM: TGI [23]
97.4 µM: TGI [4]
